From US20210330611A1, “THERAPY FOR NEUROLOGICAL DISEASES/DISORDERS” (priority 2020, published 2021)
Counter-ions that a name gives are not always drawn. Like-named read-outs stand apart in the source and are kept apart here.

What was measured:
[1] = test system: fibrin- and LPS-induced microglia activation; test: cells; assay type: cell-based, rat
[2] = test system: LPS-induced microglia activation; test: Image-based assay of LPS-induced microglia activation (HTS and dose response); assay type: cell-based, rat; conditions: for inhibition at 10 µM: Rattus norvegicus, Microglia, read-out: LPS % inhibition
primary rat microglia [3] = test: Cell toxicity (dead cells, size <150 μm2) in coated fibrin (cFib) assay; conditions: for IC50: read-out: Cell Toxicity IC50 (uM) [cFib assay];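 on Fibrin % cell toxicity: share of dead cells sized under 150 µm2 at 10 µM in fibrin-stimulated microglia HTS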
[4] = test system: fibrin-induced microglia activation; test: Image-based assay of fibrin-induced microglia activation (HTS and dose response); assay type: cell-based, rat; conditions: for inhibition at 10 µM: Rattus norvegicus, Microglia, read-out: Fibrin % inhibition
primary rat microglia [5] = test: Cell toxicity (dead cells, size <150 μm2) in LPS assay; conditions: for IC50: read-out: Cell Toxicity IC50 (uM) [LPS assay]
[6] = quadrant by fibrin and LPS inhibition in HTS of 1907 compounds
[7] = 48 h, primary microglia HTS, LPS stimulation, increased cell size (>800 μm^2) as marker of activation
[8] = primary microglia HTS, fibrin stimulation, decreased size (<150 μm^2) as marker of toxicity
[9] = primary microglia HTS, fibrin stimulation, increased cell size (>800 μm^2) as marker of activation
[10] = primary microglia HTS, LPS stimulation, decreased size (<150 μm^2) as marker of toxicity
[11] = primary HTS, 10 μM, LPS-stimulated primary microglia
[12] = primary HTS, 10 μM, fibrin assay, dead cells size <150 μm2
[13] = primary HTS, 10 μM, fibrin-stimulated primary microglia
[14] = primary HTS, 10 μM, LPS assay, dead cells size <150 μm2
[15] = HTS of 1907 compounds, quadrant by fibrin and LPS inhibition
[16] = primary microglia HTS, LPS stimulation, increased cell size (>800 μm^2) as marker of activation
[17] = primary microglia HTS, 10 μM, LPS-stimulated, cell size >800 μm^2 as marker of activation
[18] = primary microglia HTS, 10 μM, fibrin assay, cell size <150 μm^2 as marker of toxicity
[19] = primary microglia HTS, 10 μM, fibrin-stimulated, cell size >800 μm^2 as marker of activation
[20] = primary microglia HTS, 10 μM, LPS assay, cell size <150 μm^2 as marker of toxicity

OC[C@@H](O)[C@@H](O)[C@H](O)[C@H](O)CO [Mannitol]
Quadrant (FIG. 5b) [1, 6]: Q4
inhibition at 10 µM [2, 7]: 0%
Fibrin % cell toxicity (primary rat microglia [3]; [8]): 1%
inhibition at 10 µM [4, 9]: 5%
LPS % cell toxicity (primary rat microglia [5]; [10]): 0%

Nc1ncnc(Nc2ccc(Cl)cc2)n1 [Chlorazanil Hydrochloride]
Quadrant (FIG. 5b) ([1]; primary HTS, 10 μM): Q4
inhibition at 10 µM [2, 11]: 3%
Fibrin % cell toxicity (primary rat microglia [3]; [12]): 1%
inhibition at 10 µM [4, 13]: 0%
LPS % cell toxicity (primary rat microglia [5]; [14]): 0%

Gentamicin sulfate [reference compound]
Hit ([1]; HTS hit classification): HIT (Hits were defined as molecules that exhibited greater than 50% inhibition of either fibrin or LPS activation)
Quadrant (FIG. 5b) [1, 15]: Q2
Quadrant (FIG. 5b) ([1]; Table 1, screen at 10 μM): Q2
Cherry-picked Hit (Suppl. Table 7) ([1]; Table 3): HIT (Hits were defined as molecules that exhibited greater than 50% inhibition of either fibrin or LPS activation)
Quadrant (FIG. 5b) ([1]; Table 3, screen at 10 μM): Q2
Cherry-picked Hit (Suppl. Table 7) ([1]; hit classification in microglia HTS): HIT (Hits were defined as molecules that exhibited greater than 50% inhibition of either fibrin or LPS activation)
Quadrant (FIG. 5b) [1, 6]: Q2
IC50 ([2]; LPS-induced microglia activation, dose response, read-out: LPS IC50 (uM) (Suppl. Table 7)): > 20 µM
IC50 ([2]; Table 1, dose response 0.001-20 μM, triplicates, primary rat microglia, 48 h, read-out: LPS IC50): > 20 µM
IC50 ([2]; Table 3, read-out: LPS IC50 (uM) (Suppl. Table 7)): > 20 µM
IC50 ([2]; dose response, LPS-induced microglia activation, read-out: LPS IC50): > 20 µM
LPS % inhibition [2, 16]: 101%
Fibrin % cell toxicity (primary rat microglia [3]; [8]): 1%
IC50 (primary rat microglia [3]; Table 3): > 20 µM
IC50 (primary rat microglia [3]; cFib assay): > 20 µM
Fibrin Selectivity [4]: 5
Fibrin Selectivity (LOG10) [4]: 0.71
IC50 ([4]; Table 1, dose response 0.001-20 μM, triplicates, primary rat microglia, 48 h, read-out: Fibrin IC50): 4 µM
IC50 ([4]; Table 3, read-out: Fibrin IC50 (uM) (Suppl. Table 7)): 4 µM
IC50 ([4]; dose response, fibrin-induced microglia activation, read-out: Fibrin IC50): 4 µM
IC50 ([4]; fibrin-induced microglia activation, dose response, read-out: Fibrin IC50 (uM) (Suppl. Table 7)): 4 µM
Fibrin % inhibition [4, 9]: 105%
LPS % cell toxicity (primary rat microglia [5]; [10]): 4%
IC50 (primary rat microglia [5]; LPS assay): > 20 µM
IC50 (primary rat microglia [5]; Table 3): > 20 µM

COc1ccc(O)c(C(C)(C)C)c1 [Butylated Hydroxyanisole]
Quadrant (FIG. 5b) ([1]; primary HTS, 10 μM): Q4
LPS % inhibition [2, 11]: 26%
Fibrin % cell toxicity (primary rat microglia [3]; [12]): 1%
Fibrin % inhibition [4, 13]: −17%
LPS % cell toxicity (primary rat microglia [5]; [14]): 0%

COc1ccc(NS(=O)(=O)c2ccc(N)cc2)nn1 [Sulfamethoxypyridazine]
Quadrant (FIG. 5b) [1, 15]: Q4
inhibition at 10 µM [2, 17]: 15%
Fibrin % cell toxicity (primary rat microglia [3]; [18]): 1%
inhibition at 10 µM [4, 19]: 21%
LPS % cell toxicity (primary rat microglia [5]; [20]): 0%

NCc1ccc(S(N)(=O)=O)cc1 [Mafenide]
Quadrant (FIG. 5b) [1, 6]: Q4
inhibition at 10 µM [2, 7]: -3%
Fibrin % cell toxicity (primary rat microglia [3]; [8]): 1%
inhibition at 10 µM [4, 9]: 10%
LPS % cell toxicity (primary rat microglia [5]; [10]): 0%

COc1cc(/C=C/C(=O)N2CCCCCCC2)cc(OC)c1OC [Cinoctramide]
Quadrant (FIG. 5b) [1, 6]: Q2
LPS % inhibition [2, 16]: 53%
Fibrin % cell toxicity (primary rat microglia [3]; [8]): 4%
Fibrin % inhibition [4, 9]: 90%
LPS % cell toxicity (primary rat microglia [5]; [10]): 1%

O=c1cc[nH]c(=O)[nH]1 [Uracil]
Quadrant (FIG. 5b) [1, 15]: Q4
inhibition at 10 µM [2, 17]: 11%
Fibrin % cell toxicity (primary rat microglia [3]; [18]): 0%
inhibition at 10 µM [4, 19]: 3%
LPS % cell toxicity (primary rat microglia [5]; [20]): 0%

CCn1nc(C(=O)O)c(=O)c2cc3c(cc21)OCO3 [Cinoxacin]
Quadrant (FIG. 5b) [1, 6]: Q2
inhibition at 10 µM [2, 7]: 115%
Fibrin % cell toxicity (primary rat microglia [3]; [8]): 50%
inhibition at 10 µM [4, 9]: 117%
LPS % cell toxicity (primary rat microglia [5]; [10]): 12%

COc1ccc(CN2CCNCC2)c(OC)c1OC [Trimetazidine]
Quadrant (FIG. 5b) [1, 15]: Q4
inhibition at 10 µM [2, 17]: 1%
Fibrin % cell toxicity (primary rat microglia [3]; [18]): 1%
inhibition at 10 µM [4, 19]: -18%
LPS % cell toxicity (primary rat microglia [5]; [20]): 0%

CS(=O)(=O)c1ccc([C@@H](O)[C@@H](CO)NC(=O)C(Cl)Cl)cc1 [Thiamphenicol]
Quadrant (FIG. 5b) [1, 15]: Q4
inhibition at 10 µM [2, 17]: 12%
Fibrin % cell toxicity (primary rat microglia [3]; [18]): 0%
inhibition at 10 µM [4, 19]: -19%
LPS % cell toxicity (primary rat microglia [5]; [20]): 0%

CO/N=C(\C(=O)N[C@@H]1C(=O)N2C(C(=O)O)=C(C[N+]3(C)CCCC3)CS[C@H]12)c1csc(N)n1 [Cefepime Hydrochloride]
Quadrant (FIG. 5b) ([1]; primary HTS, 10 μM): Q4
inhibition at 10 µM [2, 11]: 16%
Fibrin % cell toxicity (primary rat microglia [3]; [12]): 1%
inhibition at 10 µM [4, 13]: 7%
LPS % cell toxicity (primary rat microglia [5]; [14]): 0%
